Assay results reported in ChEMBL document CHEMBL1201862, “PubChem BioAssay data set” (2004).
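Five compound concentrations were applied to cells in 96-well plates for 48 hours; endpoints were derived by simple linear interpolation of the resulting dose-response curve. At the GI50, growth is halved.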 Calls of active or inactive are those of the source. Cut-off read from the data, not from the text of the source: active = GI50 up to about 1.1 µM and inactive = higher.

Tests used:
Assay in all cases: growth of human tumour cells (NCI), 48 h
SK-MEL-5 = system: SK-MEL-5
A549 = system: A549
HT-29 = system: HT-29
NCI-H522 = system: NCI-H522
MDA-N = system: MDA-N
TK-10 = system: TK-10
OVCAR-3 = system: OVCAR-3
NCI/ADR-RES = system: NCI/ADR-RES
HOP-62 = system: HOP-62
UO-31 = system: UO-31
K562 = system: K562
SF-295 = system: SF-295
SK-MEL-2 = system: SK-MEL-2
SNB-19 = system: SNB-19
786-0 = system: 786-0
EKVX = system: EKVX
RPMI-8226 = system: RPMI-8226
ACHN = system: ACHN
COLO 205 = system: COLO 205
SNB-75 = system: SNB-75

SMILES	GI50 (SK-MEL-5)	GI50 (A549)	GI50 (HT-29)	GI50 (NCI-H522)	GI50 (MDA-N)	GI50 (TK-10)	GI50 (OVCAR-3)	GI50 (NCI/ADR-RES)	GI50 (HOP-62)	GI50 (UO-31)	GI50 (K562)	GI50 (SF-295)	GI50 (SK-MEL-2)	GI50 (SNB-19)	GI50 (786-0)	GI50 (EKVX)	GI50 (RPMI-8226)	GI50 (ACHN)	GI50 (COLO 205)	GI50 (SNB-75)
O=C(Nc1ccc(Cl)cc1Cl)c1cc2nc3ccccc3c(=O)n2c2ccccc12	> 10 µM (inactive)	> 10 µM (inactive)	> 10 µM (inactive)	> 10 µM (inactive)	> 10 µM (inactive)	> 10 µM (inactive)	> 10 µM (inactive)	> 10 µM (inactive)	> 10 µM (inactive)	> 10 µM (inactive)	> 10 µM (inactive)	> 10 µM (inactive)	> 10 µM (inactive)	> 10 µM (inactive)	> 10 µM (inactive)	> 10 µM (inactive)	–	–	–	–
C=CCSC1=N/C(=C\c2ccc(C)cc2)C(=O)N1CC=C	14.3 µM (inactive)	21.3 µM (inactive)	13.9 µM (inactive)	26.7 µM (inactive)	18.6 µM (inactive)	44.3 µM (inactive)	57.5 µM (inactive)	40.5 µM (inactive)	64.6 µM (inactive)	22.9 µM (inactive)	10.4 µM (inactive)	43.5 µM (inactive)	25.8 µM (inactive)	32.4 µM (inactive)	18.3 µM (inactive)	10.1 µM (inactive)	13.9 µM (inactive)	36.1 µM (inactive)	20.6 µM (inactive)	–
C=CCc1ccccc1CC1(OCC)OC(=O)c2ccccc21 (stereo not given)	39.9 µM (inactive)	> 100 µM (inactive)	45.2 µM (inactive)	67.8 µM (inactive)	31.3 µM (inactive)	> 100 µM (inactive)	41.2 µM (inactive)	–	94 µM (inactive)	> 100 µM (inactive)	51.8 µM (inactive)	> 100 µM (inactive)	89.3 µM (inactive)	> 100 µM (inactive)	> 100 µM (inactive)	> 100 µM (inactive)	17 µM (inactive)	> 100 µM (inactive)	67.1 µM (inactive)	0.0259 µM (active)
CN1C(=O)CC2CCC(=O)N2c2cccnc21 (stereo not given)	> 100 µM (inactive)	> 100 µM (inactive)	> 100 µM (inactive)	> 100 µM (inactive)	> 100 µM (inactive)	> 100 µM (inactive)	> 100 µM (inactive)	> 100 µM (inactive)	> 100 µM (inactive)	> 100 µM (inactive)	> 100 µM (inactive)	> 100 µM (inactive)	> 100 µM (inactive)	> 100 µM (inactive)	> 100 µM (inactive)	> 100 µM (inactive)	> 100 µM (inactive)	> 100 µM (inactive)	> 100 µM (inactive)	–
Cc1n[nH]c(=O)n1C1CCCC1	> 100 µM (inactive)	> 100 µM (inactive)	> 100 µM (inactive)	> 100 µM (inactive)	> 100 µM (inactive)	> 100 µM (inactive)	> 100 µM (inactive)	> 100 µM (inactive)	> 100 µM (inactive)	> 100 µM (inactive)	> 100 µM (inactive)	> 100 µM (inactive)	–	> 100 µM (inactive)	> 100 µM (inactive)	> 100 µM (inactive)	> 100 µM (inactive)	> 100 µM (inactive)	> 100 µM (inactive)	> 100 µM (inactive)
O=c1cc(C(F)(F)F)c2cc3c(cc2o1)NCCC3	78.3 µM (inactive)	> 100 µM (inactive)	> 100 µM (inactive)	49.5 µM (inactive)	> 100 µM (inactive)	> 100 µM (inactive)	> 100 µM (inactive)	> 100 µM (inactive)	17.1 µM (inactive)	61.1 µM (inactive)	> 100 µM (inactive)	35 µM (inactive)	78.3 µM (inactive)	23 µM (inactive)	35.2 µM (inactive)	6.4 µM (inactive)	> 100 µM (inactive)	> 100 µM (inactive)	> 100 µM (inactive)	–
CC(C)(C)OC(=O)Nc1nnc(S(N)(=O)=O)s1	> 100 µM (inactive)	> 100 µM (inactive)	> 100 µM (inactive)	> 100 µM (inactive)	> 100 µM (inactive)	> 100 µM (inactive)	> 100 µM (inactive)	> 100 µM (inactive)	> 100 µM (inactive)	> 100 µM (inactive)	> 100 µM (inactive)	> 100 µM (inactive)	> 100 µM (inactive)	> 100 µM (inactive)	> 100 µM (inactive)	> 100 µM (inactive)	> 100 µM (inactive)	> 100 µM (inactive)	> 100 µM (inactive)	–
